Test results taken from patent US20140241988A1, “METHODS AND COMPOSITIONS FOR TREATING ATRIAL FIBRILLATION” (The Regents of The University of Michigan, priority 2013, published 2014).
“Also recorded” adds a separate entry of the source. Each block holds one compound with its values, some of them ahead of it.

Tests used:
[1] = system: FOXO1; experiment: Western blot of FOXO1 phosphorylation; format: cell-based, rat
Experimental: Cell Treatment: Isolated adult rat cardiac myocytes were treated with FCM or TGF-β1 (R and D systems, Minneapolis, Minn.) for 3 days in serum free medium. For PI3K pathway inhibition cells were pretreated (30 min) with 10 μM […] (Cayman Chemicals, Ann Arbor) before the treatment with TGF-β1. mRNA analysis by quantitative PCR (qPCR): Cardiac myocytes were washed with PBS and lysed with lysis buffer. RNA was isolated from the myocardial tissue using RNAeasy kit from Qiagen (Qiagen, Valencia, Calif.) according to the manufacturer's instructions. Isolated RNA from these samples was treated with DNase for 15 min at room temperature (Qiagen, Valencia, Calif.). 100 ng of DNA-free total poly-A tail RNA (mRNA) was first subjected to synthesis of cDNA using Oligo dT primers applying SuperScript III First-Strand Synthesis System from Invitrogen (Invitrogen, Carlsbad, Calif.) according to the manufacturer's instructions. cDNA from 20 ng of total RNA was then subjected to real-time RT-PCR using predesigned taqman probe primers specific for rat Scn5a (Rn00565502), Kcnip2 (Kchip2; Rn01411451) and kcnd2 (Rn01456260) (Applied Biosystems, California). No-template controls and no-RT controls were run during each experiment to detect any RNA and/or DNA contamination. Results are expressed as fold expression of gene of interest normalized to GAPDH expression in the sample. Western blotting: Control and treated cardiac myocytes were washed in cold PBS, lysed directly in the modified loading buffer (25 mmol/l Tris.HCl; 150 mmol/l NaCl; 1 mmol/l EDTA; 4 mmol/l NaF; 2 mmol/l Sodium ortho-vanadate; 1% Triton X-100, protease inhibitor, 5% glycerol, 1% SDS, 0.05% bromophenol blue, 5% β mercaptoethanol) and sonicated. The lysate (20 μl) were then subjected SDS-PAGE as described earlier. […] Patch-clamp experiments: Whole-cell ionic currents were recorded from adult rat ventricular myocytes. […] Voltage-dependence of inactivation was assessed by holding cells at various potentials from −160 to −40 mV followed by a 30 msec test pulse to −40 mV to elicit INa. […]

[2] = system: SCN5A; experiment: qPCR mRNA expression; format: cell-based, rat
Experimental: (§1) Cell Treatment: Isolated adult rat cardiac myocytes were treated with FCM or TGF-β1 (R and D systems, Minneapolis, Minn.) for 3 days in serum free medium. For PI3K pathway inhibition cells were pretreated (30 min) with 10 μM […] (Cayman Chemicals, Ann Arbor) before the treatment with TGF-β1. mRNA analysis by quantitative PCR (qPCR): Cardiac myocytes were washed with PBS and lysed with lysis buffer. RNA was isolated from the myocardial tissue using RNAeasy kit from Qiagen (Qiagen, Valencia, Calif.) according to the manufacturer's instructions. Isolated RNA from these samples was treated with DNase for 15 min at room temperature (Qiagen, Valencia, Calif.). 100 ng of DNA-free total poly-A tail RNA (mRNA) was first subjected to synthesis of cDNA using Oligo dT primers applying SuperScript III First-Strand Synthesis System from Invitrogen (Invitrogen, Carlsbad, Calif.) according to the manufacturer's instructions. cDNA from 20 ng of total RNA was then subjected to real-time RT-PCR using predesigned taqman probe primers specific for rat Scn5a (Rn00565502), Kcnip2 (Kchip2; Rn01411451) and kcnd2 (Rn01456260) (Applied Biosystems, California). No-template controls and no-RT controls were run during each experiment to detect any RNA and/or DNA contamination. Results are expressed as fold expression of gene of interest normalized to GAPDH expression in the sample. Western blotting: Control and treated cardiac myocytes were washed in cold PBS, lysed directly in the modified loading buffer (25 mmol/l Tris.HCl; 150 mmol/l NaCl; 1 mmol/l EDTA; 4 mmol/l NaF; 2 mmol/l Sodium ortho-vanadate; 1% Triton X-100, protease inhibitor, 5% glycerol, 1% SDS, 0.05% bromophenol blue, 5% β mercaptoethanol) and sonicated. The lysate (20 μl) were then subjected SDS-PAGE as described earlier. The blots were incubated with rabbit pFOXO1 antibody, 1:500 (Cell Signaling) or rabbit GAPDH antibody, 1:5000 (Sigma-Aldrich, St. Louis, Mo.). Patch-clamp experiments: Whole-cell ionic currents were recorded from adult rat ventricular myocytes. All recordings were conducted at room temperature. Sodium current recordings were conducted in a low-sodium extracellular solution containing (in mM): NaCl, 10; MgCl2, 1; CaCl2, 1.8; CdCl2, 0.1; HEPES, 20; CsCl, 127.5; glucose, 11. The pipette solution contained (in mM): NaCl, 5; CsF, 135; EGTA, 10; MgATP, 5; HEPES, 5. To characterize the voltage dependence of the peak INa, single cells were held at −120 mV, and 200 msec voltage steps were applied from −90 to +30 mV in 5 mV increments. The interval between voltage steps was 3 sec. Voltage-dependence of inactivation was assessed by holding cells at various potentials from −160 to −40 mV followed by a 30 msec test pulse to −40 mV to elicit INa. […]

[3] = system: adult sheep atrial fibroblasts; experiment: Wound healing (migration) assay; format: cell-based; conditions: Gal-3 10 μg/ml, days 0-2
Experimental: (§2) Wound healing experiments were performed to investigate if exogenous Gal-3 can increase myofibroblast migration in vitro (FIG. 3). Adult sheep atrial fibroblasts were cultured in 96-well plates until confluent. Before serum starvation, cells were stained with cell tracker dye and DAPI. A wound was created by scraping a semi-confluent monolayer of cells with a 1 ml pipette tip. Thereafter, cells underwent serum starvation in DMEM with 5% FBS for 6 hrs. Comparisons were made between untreated and Gal-3 treated (1 μg/ml or 10 μg ml) cells. The wound was imaged at 4 different locations at 3 different time points (days 0, 1 and 2). The size of the wound was quantified using the NIS element program by Nikon. […] Next, to investigate the effects of Gal-3 on myofibroblast proliferation, adult sheep atrial fibroblasts were treated with recombinant human Gal-3 (EMD chemicals, USA) for 24 hours in the presence of SFM. FM was included as a positive control. Cell proliferation was measured using cell proliferation reagent WST (Roche Diagnostics, USA). […] Such concentrations are in the same range used previously (Sharma et al., Circulation. 2004; 110:3121-3128) to investigate Gal-3 induced fibroblast proliferation in the cardiomyopathic heart.

[4] = system: adult sheep atrial myofibroblasts; experiment: Cell proliferation assay (WST reagent); format: cell-based; conditions: Gal-3 1-30 μg/ml, 24 hours, SFM
Experimental: as §2

[5] = system: adult rat ventricular myocytes; experiment: Whole-cell patch clamp, transient outward potassium current (Ito); format: cell-based; conditions: 72 hr
Text: The extracellular solution for transient outward potassium current (Ito) contained (in mM): 136 NaCl, 4 KCl, 1.8 CaCl2, 2 MgCl2, 10 HEPES, 0.03 tetrodotoxin, 0.01 nifedipine, and 14 glucose, pH 7.35. The pipette solution contained (in mM):135 KCl, 1 MgCl2, 10 EGTA, 10 HEPES, 5 glucose, pH 7.2. Voltage-gated outward K+ currents were evoked during 5-s depolarizing voltage steps to potentials between −40 and +60 mV from a holding potential of −70 mV; voltage steps were presented in 10 mV increments at 15 s intervals
(§3) In all experiments, cells were exposed to one of the following for 72 hrs prior to the experiment: control medium, FCM or TGF-β1.

[6] = system: adult rat ventricular myocytes; experiment: Current clamp action potential recording; format: cell-based
Experimental: Action potentials were recorded from individual myocytes using the current clamp mode of the MultiClamp 700B amplifier after gigaseal formation and patch break. Stimulus pulses (1-2 ms duration) were generated using a World Precision Instruments DS8000 stimulator (Sarasota, Fla.). The bath solution contained (in mM): NaCl: 148, KCl: 5.4, MgCl2: 1, CaCl2 1.8, NaH2PO4: 0.4, HEPES: 15, Glucose: 5.5, pH 7.4 with NaOH. The pipette solution contained (in mM), KCl: 20, K-aspartate: 90, KH2PO4: 10, EDTA: 5.0, K2ATP: 1.9, HEPES: 5.0 and Mg2+ 7.9; pH 7.2 (KOH)
as §3

[7] = system: KCNIP2; experiment: qPCR mRNA expression; format: cell-based, rat; conditions: 1 ng/ml, 72 hr
Experimental: as §1

[8] = system: KCND2; experiment: qPCR mRNA expression; format: cell-based, rat; conditions: 1 ng/ml, 72 hr
Experimental: as §1

[9] = system: adult rat ventricular myocytes; experiment: Whole-cell patch clamp, peak inward sodium current (INa); format: cell-based
Experimental: as §1

Compound: O=c1cc(N2CCOCC2)oc2c(-c3ccccc3)cccc12 [LY 29004, reference compound]
phosphorylation of FOXO1 in TGF-β1 treated cells ([1]; pretreated with PI3K inhibitor): inhibited
TGF-β1 induced increase in SCN5A transcription ([2]; pretreated with PI3K inhibitor (10 μM, 30 min)): failed to show increased SCN5A transcription

Compound: Gal-3: recombinant human Gal-3 (EMD chemicals, USA)
rate of migration / wound healing [3]: significantly increased the rate of migration and promoted wound healing; also recorded: increases the rate of wound healing
proliferation (number) of adult sheep atrial myofibroblasts [4]: increased the number of adult sheep atrial myofibroblasts in a concentration-dependent manner; also recorded: increases proliferation

EC50 for increase of peak inward INa density ([9]; 72 hours, 0.001-1.0 ng/ml): 0.007 ng/mL
Compound: TGF-β1: exogenous TGF-β1 cytokine (R and D systems, Minneapolis, Minn.)
peak Ito ([5]; 1 ng/ml): significantly reduced the peak Ito but to a much modest level
Ito current density ([5]; 10 ng/ml, 60 mV): 12.6±0.98
Ito current density, % of control levels ([5]; 10 ng/ml, 60 mV): 57%
reduction of Ito current density ([5]; 10 ng/ml, +20 mV): 42%
APD30 ([6]; 10 ng/ml, BCL 1000 ms): 29.1 ± 5.6 ms
APD30 times larger than control ([6]; 10 ng/ml, BCL 1000 ms): > 3.5 times
APD / early afterdepolarizations ([6]; 50 ng/ml): APD was so prolonged that some cells early after depolarizations (EADs)
increase in phosphorylated FOXO1 vs control ([1]; 1 ng/ml): 67%
time of peak FOXO1 phosphorylation ([1]; 1 ng/ml): 15 min
reduction of KCNIP2 mRNA levels [7]: 77%
decrease of KCND2 expression with respect to control [8]: 50.6%
SCN5A transcript levels, fold increase ([2]; 1 ng/ml, 72 hr): 1.73±0.26 fold
more inward current compared to control medium ([9]; 1 ng/ml, at −40V (so in the source)): about 40%
voltage dependence of activation (m∞) and inactivation (h∞) ([9]; 72 hr treatment): neither the m∞ nor the h∞ curve was modified
maximum INa increase ([9]; at 1 ng/ml (also seen at 10 ng/ml), 72 hours): about 40%
